Experimental data reported in patent publication US10689381B2 (priority 2017, dated 2020).
Where two headings read alike, the source gives them in different places.

Experiments:
HCT116 = test: cells; assay type: cell-based, human; details: for IC50: read-out: IC50 HCT116
Procedure, shortened: (§1)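 Compound exposure ran 72 h at six concentrations (0–1000 nM or 0–10000 nM, duplicate) on cells plated at 30,000 cells/mL in 10% FBS DMEM. A closing 37 °C incubation took 15 min (HCT116) or 5 min (L1210).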

L1210 = test: cells; assay type: cell-based, mouse
Procedure, shortened: as §1

Compound	IC50 (HCT116; Table 5) [nM]	IC50 (L1210; Table 5) [nM]	IC50 (HCT116; Table 2) [nM]	IC50 (L1210; Table 2) [nM]	IC50 (HCT116; Table 6) [nM]	IC50 (L1210; Table 6) [nM]	other results
CC[C@]1(NC(=O)c2ccoc2)C[C@H]2CN(CCc3c([nH]c4ccccc34)[C@@](C(=O)OC)(c3cc4c(cc3OC)N(C)[C@H]3[C@@](O)(C(=O)OC)[C@H](OC(C)=O)[C@]5(CC)C=CCN6CC[C@]43[C@@H]65)C2)C1 [Compound 133]	0.6	0.7	–	–	–	–	activity relative to 20′ benzamide Compound 24 (better) (HCT116): roughly 2 fold; potency relative to vinblastine (more potent) (HCT116; vinblastine-sensitive cell lines): 10 fold
CC[C@]1(NC(=O)c2cscn2)C[C@H]2CN(CCc3c([nH]c4ccccc34)[C@@](C(=O)OC)(c3cc4c(cc3OC)N(C)[C@H]3[C@@](O)(C(=O)OC)[C@H](OC(C)=O)[C@]5(CC)C=CCN6CC[C@]43[C@@H]65)C2)C1 [Compound 139]	6.3	5.6	–	–	–	–	–
CC[C@]1(NC(=O)c2ccc(N)cc2)C[C@H]2CN(CCc3c([nH]c4ccccc34)[C@@](C(=O)OC)(c3cc4c(cc3OC)N(C)[C@H]3[C@@](O)(C(=O)OC)[C@H](OC(C)=O)[C@]5(CC)C=CCN6CC[C@]43[C@@H]65)C2)C1 [Compound 57]	–	–	0.4	0.4	–	–	–
CC[C@]1(NC(=O)c2cocn2)C[C@H]2CN(CCc3c([nH]c4ccccc34)[C@@](C(=O)OC)(c3cc4c(cc3OC)N(C)[C@H]3[C@@](O)(C(=O)OC)[C@H](OC(C)=O)[C@]5(CC)C=CCN6CC[C@]43[C@@H]65)C2)C1 [Compound 137]	4	4.5	–	–	–	–	–
CC[C@]1(NC(=O)c2cc3ccccc3s2)C[C@H]2CN(CCc3c([nH]c4ccccc34)[C@@](C(=O)OC)(c3cc4c(cc3OC)N(C)[C@H]3[C@@](O)(C(=O)OC)[C@H](OC(C)=O)[C@]5(CC)C=CCN6CC[C@]43[C@@H]65)C2)C1 [Compound 165]	–	–	–	–	1.9	3.1	–
CC[C@]1(NC(=O)c2ccc(NC(=O)OC(C)(C)C)c(C)c2)C[C@H]2CN(CCc3c([nH]c4ccccc34)[C@@](C(=O)OC)(c3cc4c(cc3OC)N(C)[C@H]3[C@@](O)(C(=O)OC)[C@H](OC(C)=O)[C@]5(CC)C=CCN6CC[C@]43[C@@H]65)C2)C1 [Compound 105]	–	–	5.8	5.6	–	–	–
CCC1(NC(=O)c2ccc3ccncc3c2)CC2CN(CCc3c([nH]c4ccccc34)C(C(=O)OC)(c3cc4c(cc3OC)N(C)C3C(O)(C(=O)OC)C(OC(C)=O)C5(CC)C=CCN6CCC43C65)C2)C1 (stereo not shown) [Compound 153]	–	–	–	–	0.4	0.4	–
CC[C@]1(NC(=O)c2ccc(C(C)C)cc2)C[C@H]2CN(CCc3c([nH]c4ccccc34)[C@@](C(=O)OC)(c3cc4c(cc3OC)N(C)[C@H]3[C@@](O)(C(=O)OC)[C@H](OC(C)=O)[C@]5(CC)C=CCN6CC[C@]43[C@@H]65)C2)C1 [Compound 32]	–	–	6.4	5.4	–	–	–
CCC1(NC(=O)c2ccc3c(c2)CCCCC3)CC2CN(CCc3c([nH]c4ccccc34)C(C(=O)OC)(c3cc4c(cc3OC)N(C)C3C(O)(C(=O)OC)C(OC(C)=O)C5(CC)C=CCN6CCC43C65)C2)C1 (stereo not shown) [Compound 126]	–	–	–	–	–	–	IC50 (HCT116; Table 4): 4.8 nM; IC50 (L1210; Table 4): 6.1 nM
CCC1(NC(=O)c2ccc3ncccc3c2)CC2CN(CCc3c([nH]c4ccccc34)C(C(=O)OC)(c3cc4c(cc3OC)N(C)C3C(O)(C(=O)OC)C(OC(C)=O)C5(CC)C=CCN6CCC43C65)C2)C1 (stereo not shown) [Compound 150]	–	–	–	–	0.6	0.6	–
CCC1(NC(=O)c2cccnc2)CC2CN(CCc3c([nH]c4ccccc34)C(C(=O)OC)(c3cc4c(cc3OC)N(C)C3C(O)(C(=O)OC)C(OC(C)=O)C5(CC)C=CCN6CCC43C65)C2)C1 (stereo not shown) [Compound 129]	0.6	0.7	–	–	–	–	–
CC[C@]1(NC(=O)c2ccc(N)c(C)c2)C[C@H]2CN(CCc3c([nH]c4ccccc34)[C@@](C(=O)OC)(c3cc4c(cc3OC)N(C)[C@H]3[C@@](O)(C(=O)OC)[C@H](OC(C)=O)[C@]5(CC)C=CCN6CC[C@]43[C@@H]65)C2)C1 [Compound 104]	–	–	0.6	0.6	–	–	–
CC[C@]1(NC(=O)c2nc3ccccc3o2)C[C@H]2CN(CCc3c([nH]c4ccccc34)[C@@](C(=O)OC)(c3cc4c(cc3OC)N(C)[C@H]3[C@@](O)(C(=O)OC)[C@H](OC(C)=O)[C@]5(CC)C=CCN6CC[C@]43[C@@H]65)C2)C1 [Compound 169]	–	–	–	–	60	60	–
CCC1(NC(=O)c2ccc(Br)c(Br)c2)CC2CN(CCc3c([nH]c4ccccc34)C(C(=O)OC)(c3cc4c(cc3OC)N(C)C3C(O)(C(=O)OC)C(OC(C)=O)C5(CC)C=CCN6CCC43C65)C2)C1 (stereo not shown) [Compound 53]	–	–	40	60	–	–	–
CCC1(NC(=O)C2CCSCC2)CC2CN(CCc3c([nH]c4ccccc34)C(C(=O)OC)(c3cc4c(cc3OC)N(C)C3C(O)(C(=O)OC)C(OC(C)=O)C5(CC)C=CCN6CCC43C65)C2)C1 (stereo not shown) [Compound 145]	450	460	–	–	–	–	–
CC[C@]1(NC(=O)c2ccc3ccsc3c2)C[C@H]2CN(CCc3c([nH]c4ccccc34)[C@@](C(=O)OC)(c3cc4c(cc3OC)N(C)[C@H]3[C@@](O)(C(=O)OC)[C@H](OC(C)=O)[C@]5(CC)C=CCN6CC[C@]43[C@@H]65)C2)C1 [Compound 162]	–	–	–	–	2.9	3.1	–
